Measurements from ChEMBL document CHEMBL2396528, “Synthesis of new conjugated coumarin-benzimidazole hybrids and their anticancer activity” (2013).
Activity calls are given as the source filed them. No cut-off for these calls is given here.

Assays:
Format in all cases: functional
[1] = test system: MDA-MB-231; experiment: Cytotoxicity against human MDA-MB-231 cells assessed as growth inhibition at 10 uM after 48 hrs by SRB assay relative to control; conditions: MDA-MB-231, 48 h, read-out: GI
[2] = test system: U-251; experiment: Cytotoxicity against human U251 cells assessed as growth inhibition at 10 uM after 48 hrs by SRB assay relative to control; conditions: U-251, 48 h, read-out: GI
[3] = test system: RPMI-8226; experiment: Cytotoxicity against human RPMI8226 cells assessed as growth inhibition at 10 uM after 48 hrs by SRB assay relative to control; conditions: RPMI-8226, 48 h, read-out: GI
[4] = test system: DU-145; experiment: Cytotoxicity against human DU145 cells assessed as growth inhibition at 10 uM after 48 hrs by SRB assay relative to control; conditions: DU-145, 48 h, read-out: GI
[5] = test system: ACHN; experiment: Cytotoxicity against human ACHN cells assessed as growth inhibition at 10 uM after 48 hrs by SRB assay relative to control; conditions: read-out: GI
[6] = test system: KM12; experiment: Cytotoxicity against human KM12 cells assessed as growth inhibition at 10 uM after 48 hrs by SRB assay relative to control; conditions: KM12, 48 h, read-out: GI
[7] = test system: OVCAR-5; experiment: Cytotoxicity against human OVCAR5 cells assessed as growth inhibition at 10 uM after 48 hrs by SRB assay relative to control; conditions: OVCAR-5, 48 h, read-out: GI
[8] = test system: NCI-H226; experiment: Cytotoxicity against human NCI-H226 cells assessed as growth inhibition at 10 uM after 48 hrs by SRB assay relative to control; conditions: NCI-H226, 48 h, read-out: GI
[9] = test system: OVCAR-4; experiment: Cytotoxicity against human OVCAR4 cells assessed as growth inhibition at 10 uM after 48 hrs by SRB assay relative to control; conditions: OVCAR-4, 48 h, read-out: GI
[10] = test system: SN12C; experiment: Cytotoxicity against human SN12C cells assessed as growth inhibition at 10 uM after 48 hrs by SRB assay relative to control; conditions: read-out: GI
[11] = test system: HL-60(TB); experiment: Cytotoxicity against human HL-60(TB) cells assessed as growth inhibition at 10 uM after 48 hrs by SRB assay relative to control; conditions: HL-60, 48 h, read-out: GI
[12] = test system: K562; experiment: Cytotoxicity against human K562 cells assessed as growth inhibition at 10 uM after 48 hrs by SRB assay relative to control; conditions: K562, 48 h, read-out: GI
[13] = test system: HCC 2998; experiment: Cytotoxicity against human HCC2998 cells assessed as growth inhibition at 10 uM after 48 hrs by SRB assay relative to control; conditions: for inhibition of growth at 10 µM: HCC 2998, 48 h, read-out: GI
[14] = test system: UO-31; experiment: Cytotoxicity against human UO31 cells assessed as growth inhibition at 10 uM after 48 hrs by SRB assay relative to control; conditions: UO-31, 48 h, read-out: GI
[15] = test system: UACC-62; experiment: Cytotoxicity against human UACC62 cells assessed as growth inhibition at 10 uM after 48 hrs by SRB assay relative to control; conditions: UACC-62, 48 h, read-out: GI
[16] = test system: BT-549; experiment: Cytotoxicity against human BT549 cells assessed as growth inhibition at 10 uM after 48 hrs by SRB assay relative to control; conditions: BT-549, 48 h, read-out: GI

SMILES | inhibition of growth at 10 µM [1] [%] | inhibition of growth at 10 µM [2] [%] | inhibition of growth at 10 µM [3] [%] | inhibition of growth at 10 µM [4] [%] | inhibition of growth at 10 µM [5] [%] | inhibition of growth at 10 µM [6] [%] | inhibition of growth at 10 µM [7] [%] | inhibition of growth at 10 µM [8] [%] | inhibition of growth at 10 µM [9] [%] | inhibition of growth at 10 µM [10] [%] | inhibition of growth at 10 µM [11] [%] | inhibition of growth at 10 µM [12] [%] | inhibition of growth at 10 µM [13] [%] | inhibition of growth at 10 µM [14] [%] | inhibition of growth at 10 µM [15] [%] | inhibition of growth at 10 µM [16] [%] | growth inhibition (GI) [13]
O=c1oc2cc(Br)ccc2cc1-c1nc2ccccc2[nH]1 | 26 | < 20 | < 20 | 23.6 | < 20 | < 20 | < 20 | < 20 | < 20 | < 20 | < 20 | < 20 | < 20 | 22.7 | < 20 | < 20 | –
O=c1oc2cc(NCCO)ccc2cc1-c1nc2ccccc2[nH]1 | 58.9 | 20.7 | 46.6 | < 20 | < 20 | < 20 | < 20 | 30 | 44.8 | 22.4 | 80.5 | 57.3 | < 20 | 41.9 | 27.2 | 33.1 | –
CN1CCN(c2ccc3cc(-c4nc5ccccc5[nH]4)c(=O)oc3c2)CC1 | < 20 | < 20 | 35.4 | < 20 | < 20 | < 20 | < 20 | < 20 | 29.8 | < 20 | 27.1 | 56.4 | < 20 | 34.6 | – | < 20 | –
O=c1[nH]cc(F)c(=O)[nH]1 [FLUOROURACIL] | 78.1 | 50.3 | 41.4 | 35.5 | 39.3 | 40.7 | 44.3 | 69.5 | 59.4 | 54 | 47.9 | 42.3 | – | 41.3 | 39.7 | 37.8 | Active
NCCNc1ccc2cc(-c3nc4ccccc4[nH]3)c(=O)oc2c1 | 34 | < 20 | – | < 20 | < 20 | < 20 | < 20 | < 20 | < 20 | < 20 | < 20 | < 20 | < 20 | < 20 | < 20 | < 20 | –
O=c1oc2cc(N3CCOCC3)ccc2cc1-c1nc2ccccc2[nH]1 | < 20 | < 20 | < 20 | < 20 | < 20 | < 20 | < 20 | < 20 | < 20 | < 20 | < 20 | < 20 | < 20 | 24.9 | < 20 | < 20 | –
O=c1oc2cc(NCCN3CCOCC3)ccc2cc1-c1nc2ccccc2[nH]1 | < 20 | < 20 | < 20 | < 20 | < 20 | < 20 | < 20 | < 20 | < 20 | < 20 | < 20 | < 20 | < 20 | 34.3 | < 20 | < 20 | –
